Reference: patent US20170348288A1, “DOSING REGIMENS FOR BETA-3 ADRENOCEPTOR AGONISTS AND ANTI-MUSCARINIC AGENTS FOR THE TREATMENT AND PREVENTION OF LOWER URINARY TRACT SYMPTOMS AND OVERACTIVE BLADDER” (VELICEPT THERAPEUTICS, INC., priority 2016, published 2017)

Key:
[1] = target: T1, beta-3 adrenoceptor (Rattus norvegicus, UniProt P26255); assay: Pilot cumulative concentration response curves to determine EC90 for inhibition of EFS-induced contraction in rat isolated bladder; conditions: rat isolated bladder strips, EFS 15 Hz, CCRC half-log increments; calculated values; read-out: EC90 concentration to inhibit EFS-induced contraction in rat isolated bladder
T1 construct: The bladder longitudinal smooth muscle, with the urothelium still attached were mounted in 25 ml organ baths; from tissue; host or cells: rat urinary bladder (longitudinal smooth muscle with urothelium), male CD rats
Protocol: Macroscopically normal bladders from Male CD rats (220-250 g) were used. […] Each bladder was cleaned free of surrounding connective tissue and halved longitudinally. The bladder longitudinal smooth muscle, with the urothelium still attached were mounted in 25 ml organ baths containing physiological saline solution (PSS) (composition: 119.0 mM NaCl, 4.7 mM KCl, 1.2 mM MgSO4, 24.9 mM NaHCO3, 1.2 mM KH2PO4, 2.5 mM CaCl2 and 11.1 mM glucose) supplemented with 1 μM prazosin (α1-adrenoceptor antagonist) and 30 nM ICI118551 (β2-adrenoceptor antagonist), aerated with 95% O2/5% CO2 gas mix, warmed and maintained at approximately 37° C. throughout the experiment. Changes in force production were recorded using transducers. […]
EFS parameters and viability check: In initial experiments the parameters for the EFS were assessed by performing a frequency curve to determine a frequency that would give a response that was approximately 80% of the response seen to 80 mM KCl. Optimal EFS parameters were determined to be: 30 Volts, square pulse of 0.1 ms, train of 4 seconds every 120 seconds, 15 Hz. […]
Pilot studies to determine EC90 concentrations of the test compounds were performed. […] From the data obtained in these experiments, EC90 concentrations of the test compounds were determined for use in subsequent experiments. […]

[2] = target: T1, beta-3 adrenoceptor; assay: Desensitization and washout: CCRC on EFS-induced contraction of rat bladder strips after pre-incubation with the EC90 concentration and washing with PSS
Protocol: Macroscopically normal bladders from Male CD rats (220-250 g) were used. […] Each bladder was cleaned free of surrounding connective tissue and halved longitudinally. The bladder longitudinal smooth muscle, with the urothelium still attached were mounted in 25 ml organ baths containing physiological saline solution (PSS) (composition: 119.0 mM NaCl, 4.7 mM KCl, 1.2 mM MgSO4, 24.9 mM NaHCO3, 1.2 mM KH2PO4, 2.5 mM CaCl2 and 11.1 mM glucose) supplemented with 1 μM prazosin (α1-adrenoceptor antagonist) and 30 nM ICI118551 (β2-adrenoceptor antagonist), aerated with 95% O2/5% CO2 gas mix, warmed and maintained at approximately 37° C. throughout the experiment. Changes in force production were recorded using transducers. After mounting, the bladder halves were allowed to equilibrate for at least 30 min before they were set to a stable tension of approximately 1.0 g. The tissue was then allowed to equilibrate over at least a 60 min period with washes every 15 min.
EFS parameters and viability check: In initial experiments the parameters for the EFS were assessed by performing a frequency curve to determine a frequency that would give a response that was approximately 80% of the response seen to 80 mM KCl. Optimal EFS parameters were determined to be: 30 Volts, square pulse of 0.1 ms, train of 4 seconds every 120 seconds, 15 Hz. This frequency was then used to stimulate the tissue for all subsequent experiments. The viability of bladder strips was tested by stimulating the tissue with EFS for minimum of ten min.
The bladder muscle strips were incubated with the EC90 determined for each test compound in the pilot studies, for a period of 1 or 3 hr. Following compound incubation, the tissues were washed with PSS for a period of 1, 3 or 6 hr, with washes approximately every 15 min, to remove the drug. At the end of the final wash period the tissues were stimulated with EFS, and left to equilibrate for at least 30 min. -A CCRC was then performed in each tissue.

[3] = target: T2, murine adipocyte beta-3 adrenoceptor (Mus musculus, UniProt P25962); conditions: literature report, cited from earlier work
T2 construct: host or cells: murine adipocytes (no further detail)

[4] = three hr incubation with EC90, one hr of washing
[5] = three hr incubation, low and mid-concentration range

T1 sequence (P26255 whole entry): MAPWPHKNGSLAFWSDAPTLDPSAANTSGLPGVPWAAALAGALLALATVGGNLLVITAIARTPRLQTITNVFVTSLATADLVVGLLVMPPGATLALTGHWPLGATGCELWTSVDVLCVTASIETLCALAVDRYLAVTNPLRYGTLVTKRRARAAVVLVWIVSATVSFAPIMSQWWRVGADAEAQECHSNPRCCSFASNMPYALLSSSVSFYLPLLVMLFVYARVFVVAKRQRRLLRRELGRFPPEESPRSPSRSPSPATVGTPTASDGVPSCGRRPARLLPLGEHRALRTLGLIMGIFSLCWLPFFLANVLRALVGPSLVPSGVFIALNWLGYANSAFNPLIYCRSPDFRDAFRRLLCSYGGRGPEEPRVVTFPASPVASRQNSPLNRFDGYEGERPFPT
T2 sequence (P25962 whole entry): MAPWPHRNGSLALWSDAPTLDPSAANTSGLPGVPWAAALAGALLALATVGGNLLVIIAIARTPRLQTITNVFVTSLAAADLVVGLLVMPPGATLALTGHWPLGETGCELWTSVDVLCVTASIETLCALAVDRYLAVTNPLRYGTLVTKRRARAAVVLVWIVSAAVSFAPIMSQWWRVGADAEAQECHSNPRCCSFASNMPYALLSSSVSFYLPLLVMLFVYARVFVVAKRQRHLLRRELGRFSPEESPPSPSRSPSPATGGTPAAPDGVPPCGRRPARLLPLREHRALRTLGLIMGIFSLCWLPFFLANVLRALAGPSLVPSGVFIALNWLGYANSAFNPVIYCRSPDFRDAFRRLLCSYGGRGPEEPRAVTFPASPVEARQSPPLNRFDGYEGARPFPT

Row | SMILES | EC90 [1] [µM] | Concentration range in which the EFS-mediated response was potentiated ([2]; following 1 or 3 hr of washout) [nM] | Responses to the agonist (CCRC, reduction of EFS-induced contraction) vs vehicle-incubated tissue ([2]; one hr incubation with EC90, one hr of washing with PSS) | Responses to the agonist (CCRC, reduction of EFS-induced contraction) vs vehicle-incubated tissue ([2]; one hr incubation with EC90, three hr of washing, higher concentrations) | Potentiation of EFS-induced contraction from baseline ([2]; one hr incubation, lower and mid-concentration range) | Responses to the agonist (CCRC, reduction of EFS-induced contraction) vs vehicle-incubated tissue [2, 4] | Responses to the agonist (CCRC, reduction of EFS-induced contraction) vs vehicle-incubated tissue ([2]; three hr incubation with EC90, three hr of washing, highest concentrations) | Potentiation of EFS-induced contraction from baseline [2, 5] | Functional response following prolonged exposure to the beta-3 agonist ([3]; murine adipocytes) | Effect on murine adipocyte beta-3 adrenoceptor [3]
1 | Nc1nc(CC(=O)Nc2ccc(CCNC[C@H](O)c3ccccc3)cc2)cs1 [mirabegron, (R)-2-(2-aminothiazol-4-yl)-N-(4-(2-((2-hydroxy-2-phenylethyl)amino)ethyl)phenyl)acetamide] | 15.3 | 10 to 1000 | significantly attenuated | significantly attenuated | marked potentiation of EFS-induced contraction | significantly attenuated | significantly attenuated | marked potentiation of EFS-induced contraction |  | 
2 | C[C@H](Cc1ccc2c(c1)OC(C(=O)[O-])(C(=O)[O-])O2)NC[C@H](O)c1cccc(Cl)c1.[Na+].[Na+] [CL-316,243] | 0.042 |  |  |  |  | significantly attenuated |  | not observed | attenuated | down-regulation
